Values joined by “and” are separate entries in the source; they are usually repeats but may differ in a detail not shown here. Identical values can stand only once.
Experiments:
Assay type in all cases: cell-based, human
[1] = tested on: POR-R cell line (POR-overexpressing HCT-116); assay: Monolayer clonogenic assay (with monolayer ABM fit); settings: for k d M: kill probability rate constant in monolayer cultures: fitted by monolayer ABM to clonogenic survival under anoxia, set to zero for the prodrug, same kd assumed for metabolites
Description: (§1) Cells (4.8 x 10^5 cells) were seeded with 2 ml culture medium into 6-well plates and left to attach for 2 h in a humidified 37°C incubator. Compounds were then prepared in culture medium and added in a 500 µl volume to each well. Plates were returned to a humidified 37°C incubator for the duration of the drug exposure (4 h). Aerobic and anoxic experiments were performed as described above. Plates were then removed from the anaerobic chamber and processed alongside the aerobic cultures. Cells were detached from monolayer by trypsinisation and plated at serial dilutions in 6-well plates. Cells were left to grow in a standard 37°C incubator for 10 days until the controls formed discrete colonies comprised of at least 50 cells. Colonies were visualized by staining with methylene blue (2 g/L in 50% aqueous ethanol) for 30 min. The number of colonies with at least 50 cells was manually counted to determine the plating efficiency. The surviving fraction was determined as the ratio of plating efficiency of treated cells to that of the controls.
(§2) An agent-based model (ABM) employing a one-dimensional approximation for monolayers was used to develop a cellular PK model, as described in further detail elsewhere ([Hong et al., 2018b]; [Mao et al., 2018]). The mathematical framework assumes that solute concentrations in the medium are dependent only on the depth (on the z coordinate) and not the lateral position (x,y) so that all cells are exposed to the same concentration of nutrients and drugs within the monolayer culture. Moreover, all cells have the same rate of metabolism and volume growth at any instance with variability allowed in cell volume, rate of cell division and cell death. Monolayer ABM simulations were performed on a desktop Windows PC (Intel core I7 processor) from a Qt (Qt Company, https://www.qt.io/) graphical user interface passing parameters to a DLL built with Fortran95. The monolayer ABM uses a finite difference method to solve reaction-diffusion equations for each compound (N) in the medium and cells. Parameters for the cellular uptake and metabolism were fitted to the concentration-time profiles of CP-506 and its metabolites in monolayer cultures of POR-R cells using a linear (first order) cell transport and metabolism model. Terms for the extracellular instability of CP-506 and its metabolites were set at their respective values in media stability studies, and media diffusion coefficients were estimated from the support membrane diffusion coefficients described below. Experimental data describing the kinetics of CP-506 uptake under aerobic conditions was fitted by adjusting the permeability coefficients kin and kout for each compound. These values were fixed for anoxic experiments to allow for parameter estimation of the rate of intracellular CP-506 metabolism (kmet0) as well as the intracellular/extracellular partitioning ratio (kin and kout) and metabolic instability (kmet0) for its cytotoxic metabolites.
(§3) The spheroid ABM is described in further detail elsewhere ([Hong et al., 2018b]; [Mao et al., 2018]). The model employs two 3D grids and two solvers, a coarse grid represents the culture medium and is embedded with a much finer grid that represents the spheroid in a small cubic region at the bottom of the well. The spheroid grows in a specified volume and depth of unstirred medium containing dissolved oxygen. The geometry of the model is lattice-based, in which cells occupy cubic sites on a regular 3D lattice and grow in volume at a rate dependent on the local oxygen concentration. Autonomous cell mobility and cell-cell forces are not simulated. Cell motion occurs only as a result of cell division. Cells divide when the volume reaches a pre-set value (Vdiv) and the resultant daughter cell occupies an adjacent empty lattice site. […] The oxygen concentration at the air-medium boundary is defined by the gas phase of the culture environment. […]

[2] = tested on: PORko-G cell line (POR-knockout HCT-116); assay: as above
Description: as §1, §2, §3

HCT-116 cell line panel = assay: Anti-proliferative IC50 assay of authentic CP-506 metabolites; settings: Homo sapiens, HCT-116, 120 h, read-out: Anti-proliferative IC50 of metabolite
Description: Cells (700–1,000 per well) were seeded with 100 µl culture medium into 96-well plates and left to attach for 2 h in a humidified 37°C incubator. Compounds were prepared in culture medium and serially diluted (1:3) in the well volume. […] Aerobic experiments were performed under standard tissue culture conditions (21% O2), and the anoxic experiments were performed in parallel in a 5% H2/Pd catalyst anaerobic chamber (Shellab Bactron, Sheldon manufacturing Inc., Cornelius, OR) using pre-equilibrated media and plasticware. All anoxia experiments were conducted using a catalyst-scrubbed anaerobic chamber, unless otherwise specified, with gas oxygen measurements of <1 ppm O2. Cells were then washed three times and left to grow for 96 h before cell density determination using a sulforhodamine B (SRB) assay ([Vichai and Kirtikara, 2006]). To this end, the cells were fixed by layering 50 µl of trichloroacetic acid (40% w/v in MilliQ water) on top of the culture media (150 µl) in each well for 1 h at 4°C. Plates were rinsed under running tap water and stained with 50 µl of SRB (0.4% w/v in MilliQ water containing 1% v/v acetic acid) for 30 min at room temperature. Plates were rapidly destained by rinsing three times in tap water containing 1% (v/v) acetic acid. The stain was solubilized by adding 100 µl of 10 mM unbuffered Tris base to each well with gentle rocking for 1 h. Plates were read on a Biotek ELx808 Absorbance Microplate Reader at 490 nm using KC4 software. The IC50 value (concentration required to reduce staining to 50% of the untreated control on the same plate) for each compound was determined by interpolation using a 4-parameter logistic regression model.
FIGURE 3 Hypoxia-dependent metabolism of CP-506 leads to the formation of a multitude of short-lived species with variable cytotoxicity. (A) Bioreductive metabolism of CP-506 under normoxic (21% O2) and anoxic conditions (<1 ppm O2). Concentrations of CP-506 and its metabolites (CP-506H, CP-506M and CP-506M-Cl2) were quantified by mass spectrometry with reference to the appropriate deuterated (D8) internal standard. Values are the mean ± SEM for three independent experiments. (B) Stability of CP-506 metabolites in culture medium (without cells) at 37°C. Concentrations were determined by mass spectrometry using standard curves generated from authenticated stocks. […] IC50 values are the mean ± SEM of duplicate wells for three independent experiments. T-tests were performed using GraphPad Prism 8 (ns, p-value > 0.05; *, p-value ≤ 0.05; **, p-value ≤ 0.01; ***, p-value ≤ 0.001).

[3] = anoxia, estimated from clonogenic survival by ABM

SMILES	k d M: kill probability rate constant in monolayer cultures [1]	Target k met0: rate constant for the maximum rate of metabolism in PORko-G cells under anoxia [2, 3] [min⁻¹]	IC50 (HCT-116 cell line panel) [µM]	IC50 ([1]; Homo sapiens, HCT-116, POR-R monolayer, 4 h exposure, <1 ppm O2, read-out: Clonogenic IC50 under anoxia) [µM]	IC50 ([2]; Homo sapiens, HCT-116, PORko-G monolayer, 4 h exposure, <1 ppm O2, read-out: Clonogenic IC50 under anoxia) [µM]	Differential in anoxic sensitivity between PORko-G and POR-R cell lines ([2]; monolayer clonogenic endpoint, anoxia)	Target k met0: rate constant for the maximum rate of metabolism in PORko-G cells under anoxia ([2]; anoxia, footnote d: assumed equivalent to the measured metabolites or from published PR-104A estimates)
CCN1CCN(C(=O)c2cc(N(CCBr)CCOS(C)(=O)=O)c(S(C)(=O)=O)cc2N)CC1 [CP-506M, 2-((4-amino-5-(4-ethylpiperazine-1-carbonyl)-2-(methylsulfonyl)phenyl)(2-bromoethyl)amino)ethyl methanesulfonate]	0.01	0.1	< 10	–	–	–	–
CCN1CCN(C(=O)c2cc(N(CCBr)CCOS(C)(=O)=O)c(S(C)(=O)=O)cc2[N+](=O)[O-])CC1 [CP-506, 2-[(2-bromoethyl)-5-[(4-ethyl-1-piperazinyl)carbonyl]-2-(methylsulfonyl)-4-nitroanilino]ethyl methanesulfonate]	0	0.0019	–	0.8 ± 0.3	17.1 ± 3.4	22 fold and 20 fold	–
CCN1CCN(C(=O)c2cc(N(CCCl)CCCl)c(S(C)(=O)=O)cc2N)CC1 [CP-506M-Cl2, (2-Amino-5-(bis(2-chloroethyl)amino)-4-(methylsulfonyl)phenyl)(4-ethylpiperazin-1-yl)methanone]	0.01	–	< 10	–	–	–	0.1 ^d min^−1
CCN1CCN(C(=O)c2cc(N(CCBr)CCOS(C)(=O)=O)c(S(C)(=O)=O)cc2NO)CC1 [CP-506H, 2-((2-bromoethyl)(5-(4-ethylpiperazine-1-carbonyl)-4-(hydroxyamino)-2-(methylsulfonyl)phenyl)amino)ethyl methanesulfonate]	0.01	0.09	< 10	–	–	–	–
